Measurements: US6696407B1, “Huntington's disease treatment comprising administering aldose reductase inhibitors to increase striatal CNTF” (The Regents of the University of California, priority 1997, dated 2004)
Marks after values point to notes of the source that are not given here.

Tested on: myelinated fibers
Assay: Axonal size-frequency distribution of myelinated fibers in sciatic nerve
Type: in vivo, rat
Conditions: galactose-fed rats
Description: These studies were conducted with the approval of the San Diego Veterans Administration Animal Studies Subcommittee. Female Sprague-Dawley rats (240-300 g; Charles River, San Diego, Calif.) were housed in cages with wire bottoms to reduce contact with urine and feces. Groups were established and fed either a 40% D-galactose diet or a control diet specially formulated by Purina that contained 40% solka floc, a nonnutritive fiber, to balance nutritional intake. All diets contained 100% of the micronutrients required by rats and, with water, were available ad libitum. Each of these diet groups contained animals that were treated with the ARI, Ponalrestat (50 mg/kg), daily by oral gavage. After two months, rats were anesthetized by intraperitoneal injection (1 ml/kg ip) of pentobarbital sodium (12.5 mg/ml) and diazepam (1.25 mg/ml) in bacteriostatic saline. Under deep anesthesia, motor nerve conduction velocity (MNCV) was measured in the left hindlimb prior to removal of the sciatic nerve. The proximal portion was processed for subsequent light microscopic examination and the distal portion used for gas chromatographic analysis of nerve polyols. The contralateral sciatic nerve was removed and used for assay of CNTF-like neurotrophic activity and either Northern blot or ELISA analysis of CNTF mRNA or protein, respectively.
For light microscopic examination, proximal portions of sciatic nerve were fixed in 2.5% phosphate-buffered glutaraldehyde (490 mosmol/kg H2O). Tissue was then postfixed in 1% aqueous osmium tetroxide for 3 to 4 hours before dehydration using a series of graded alcohols and propylene oxide. […]
In each animal, computer-assisted analysis of the axonal size-frequency distributions of myelinated fibers was performed on a single thick section sampled from the tibial fascicle midway between the sciatic notch and popliteal fossa as described in detail previously by Forcier et al. (1991) J. Neuropathol. […] Briefly, video images (Cohu, San Diego, Calif.) of the tibial fascicle obtained with an Olympus light microscope were analyzed using a VAXstation II/GPX processor (Digital Equipment Corp., Boston, Mass.) with data translation imaging hardware (DT 2651, Data Translation, Marlboro, Mass.) for digitization of single video frames and an image processing board (DT2658) for mathematical operations. […]
Two months of galactose feeding was associated with a shift in the axonal size-frequency distribution of myelinated fibers towards those with smaller diameter axons (FIG. 4). […] Data are presented as the mean ±SD (N=8 to 10 per group) and were analyzed with a one way ANOVA after which multiple comparisons were made with the Student-Newman-Keuls test. […]

Q: With O=C(O)Cc1nn(Cc2ccc(Br)cc2F)c(=O)c2ccccc12 [Ponalrestat, 3-(4-bromo-2-fluorobenzyl)-4-oxo-3H-phthalazin-1-ylacetic acid] as the compound, how does the “Relative number, Medium myelinated axons” value (diameter >3 μm but <7 μm, Ponalrestat 50 mg/kg daily oral, two months) read?
A: The value was 45.2 ± 5.0^a %.

Q: What about the “Relative number, Small myelinated axons” value (diameter ≦3 μm, Ponalrestat 50 mg/kg daily oral, two months) of the same compound?
A: Its value is 17.7 ± 4.9%.

Q: And the “Relative number, Large myelinated axons” value (diameter ≧7 μm, Ponalrestat 50 mg/kg daily oral, two months)?
A: The value was 37.1 ± 6.7^a %.

Q: What about the “Changes in axonal caliber” value of the same compound?
A: Its value is “prevented”.
